The target in this assay is T1, DHPS-3-dehydrogenase (CpHpsN) (Cupriavidus pinatubonensis, UniProt Q46N53).
T1 construct: gene hpsN
The experiment in a line: X-ray crystal structure, […] Å, co-crystallization; enzyme inhibition assay. The format is biochemical.

A word on the IC50: it is the concentration that gives 50% inhibition.

T1 sequence (Q46N53 whole entry): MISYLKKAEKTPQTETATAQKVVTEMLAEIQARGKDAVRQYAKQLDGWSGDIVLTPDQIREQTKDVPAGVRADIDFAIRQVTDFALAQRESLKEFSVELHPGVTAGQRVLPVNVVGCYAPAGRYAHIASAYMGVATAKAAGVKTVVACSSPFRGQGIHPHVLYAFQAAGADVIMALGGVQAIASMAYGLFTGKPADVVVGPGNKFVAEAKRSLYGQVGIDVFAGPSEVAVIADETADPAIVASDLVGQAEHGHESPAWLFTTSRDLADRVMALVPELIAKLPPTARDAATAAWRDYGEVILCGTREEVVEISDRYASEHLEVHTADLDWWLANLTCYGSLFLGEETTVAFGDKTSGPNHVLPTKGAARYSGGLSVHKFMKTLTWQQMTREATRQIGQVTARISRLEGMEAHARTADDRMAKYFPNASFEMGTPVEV

`N[C@@H](CS(=O)(=O)O)C(=O)O` [L-cysteate] gave an IC50 of 2400 µM.
